The values below come from publication PMC6222544, “Fragment-Based Lead Generation of 5-Phenyl-1H-pyrazole-3-carboxamide Derivatives as Leads for Potent Factor Xia Inhibitors” (Molecules : A Journal of Synthetic Chemistry and Natural …, 2018).

Data set [1] addresses T1, human FXIa (Homo sapiens, UniProt P03951).
T1 construct: purchased Haematologic Technologies, Essex Junction, VT, USA
Put plainly: Inhibition of FXIa in vitro (chromogenic substrate assay). In kind it is biochemical. The procedure: The negative controlwas composed of the same mixed solutions except replacing test compound with DMSO. […] The IC50 was calculated by IBM SPSS Statistics 22.0 (IBM Inc., North Castle, NY, USA) and the Probit function in it. IC50 values were converted to Ki values by the followingrelationship:Ki = IC50/(1 + [S]/Km)

Setting [2] is: human FXIa, chromogenic substrate BIOPHEN CS-21(66), 37 °C, pH 7.4, Ki = IC50/(1 + [S]/Km), read-out: Ki.
Setting [3] is: Table 1 values, read-out: FXIa inhibitory potency (Ki).

By melting point is commonly meant the temperature, or range, at which the solid turns liquid. A word on the Ki: it is the equilibrium dissociation constant of an inhibitor or competing ligand from its target.

The structures appear in SMILES notation. Like-named read-outs stand apart in the source and are kept apart here.

T1 sequence (P03951 388-625 limits assumed): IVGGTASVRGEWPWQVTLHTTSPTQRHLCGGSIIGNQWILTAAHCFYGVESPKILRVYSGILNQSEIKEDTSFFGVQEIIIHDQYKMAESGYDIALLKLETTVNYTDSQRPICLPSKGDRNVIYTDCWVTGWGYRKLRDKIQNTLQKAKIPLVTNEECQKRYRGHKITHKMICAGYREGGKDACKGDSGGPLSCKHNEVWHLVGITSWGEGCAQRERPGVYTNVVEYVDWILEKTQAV
T1 sequence (P03951 19-387 partner limits assumed): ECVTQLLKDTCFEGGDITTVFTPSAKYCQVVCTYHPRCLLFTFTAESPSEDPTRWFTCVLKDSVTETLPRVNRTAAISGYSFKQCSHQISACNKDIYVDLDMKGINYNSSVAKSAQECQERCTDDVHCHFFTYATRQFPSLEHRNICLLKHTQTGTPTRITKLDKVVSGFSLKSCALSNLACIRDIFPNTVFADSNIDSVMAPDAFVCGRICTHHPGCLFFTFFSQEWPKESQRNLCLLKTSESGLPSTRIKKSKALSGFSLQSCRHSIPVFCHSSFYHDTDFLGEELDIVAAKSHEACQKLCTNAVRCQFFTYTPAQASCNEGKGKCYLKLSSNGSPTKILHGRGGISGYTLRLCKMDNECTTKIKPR

As for `Cc1c(C(=O)N[C@@H](Cc2ccccc2)C(=O)Nc2ccc(C(=O)O)cc2)n[nH]c1-c1cccc(Cl)c1` [Compound 7m, (S)-4-(2-(5-(3-Chlorophenyl)-4-methyl-1H-pyrazole-3-carboxamido)-3-phenylpropanamido)benzoic acid], the melting point is 164 to 166 °C (dec.). Also, the inhibitory constant (Ki) in data set [1] (setting [2]) was 37.1 µM.

Turning to `O=C(O)c1cc2cc(NC(=O)[C@H](Cc3ccncc3)NC(=O)c3cc(-c4cccc(Cl)c4F)n[nH]3)ccc2[nH]1` [Compound 7u, (S)-5-(2-(3-(3-Chloro-2-fluorophenyl)-1H-pyrazole-5-carboxamido)-3-(pyridin-4-yl)propanamido)-1H-indole-2-carboxylic acid], the melting point is 199 to 201 °C (dec.). The Ki in data set [1] (setting [3]) turned out to be 13.3 µM. With `CCc1c(C(=O)N[C@@H](Cc2ccccc2)C(=O)Nc2ccc(C(=O)O)cc2)n[nH]c1-c1cccc(Cl)c1` [Compound 7n, (S)-4-(2-(5-(3-Chlorophenyl)-4-ethyl-1H-pyrazole-3-carboxamido)-3-phenylpropanamido)benzoic acid], the melting point is 126 to 128 °C (dec.). Besides, the Ki in data set [1] (setting [2]) is above 84.5 µM. Taken in the same sequence, the figures for `O=C(O)c1ccc(NC(=O)[C@H](Cc2ccccc2)NC(=O)c2cc(-c3ccccc3Cl)[nH]n2)cc1` [Compound 7d, (S)-4-(2-(5-(2-Chlorophenyl)-1H-pyrazole-3-carboxamido)-3-phenylpropanamido)benzoic acid] were 92 to 94 °C (dec.) and above 84.5 µM. Taken in the same sequence, the figures for `O=C(O)c1ccc(NC(=O)[C@H](Cc2ccccc2)NC(=O)c2cc(-c3c(F)cccc3Cl)[nH]n2)cc1` [Compound 7i, (S)-4-(2-(5-(2-Chloro-6-fluorophenyl)-1H-pyrazole-3-carboxamido)-3-phenylpropanamido)benzoic acid] were 203 to 205 °C (dec.) and above 84.5 µM. Taken in the same sequence, the figures for `O=C(O)c1ccc(NC(=O)[C@H](Cc2ccccc2)NC(=O)c2cc(-c3ccc(Cl)cc3)[nH]n2)cc1` [Compound 7e, (S)-4-(2-(5-(4-Chlorophenyl)-1H-pyrazole-3-carboxamido)-3-phenylpropanamido)benzoic acid] were 174 to 176 °C (dec.) and above 84.5 µM. For `O=C(N[C@@H](Cc1ccc(N2CCOCC2=O)cc1)C(=O)Nc1ccc2[nH]c(C(=O)O)cc2c1)c1cc(-c2cccc(Cl)c2F)[nH]n1` [Compound 7zc, (S)-5-(2-(5-(3-Chloro-2-fluorophenyl)-1H-pyrazole-3-carboxamido)-3-(4-(3-oxomorpholino)phenyl)-propanamido)-1H-indole-2-carboxylic acid], the melting point is 200 to 202 °C (dec.). Further, in data set [1] (setting [2]), the Ki was 4.82 µM. In the case of `O=C(O)c1cc2cc(NC(=O)[C@H](Cc3cccc(F)c3)NC(=O)c3cc(-c4cccc(Cl)c4F)n[nH]3)ccc2[nH]1` [Compound 7t, (S)-5-(2-(3-(3-Chloro-2-fluorophenyl)-1H-pyrazole-5-carboxamido)-3-(3-fluorophenyl)propanamido)-1H-indole-2-carboxylic acid], the melting point was 174 to 176 °C (dec.). Besides, the Ki in data set [1] (setting [3]) came to 1.66 µM. Regarding `O=C(O)c1ccc(NC(=O)[C@H](Cc2ccccc2)NC(=O)c2cc(-c3ccccc3)[nH]n2)cc1` [Compound 7b, (S)-4-(3-Phenyl-2-(5-phenyl-1H-pyrazole-3-carboxamido)propanamido)benzoic acid], the melting point is 137 to 139 °C (dec.). Moreover, the Ki in data set [1] (setting [2]) was above 84.5 µM. Taken in the same sequence, the figures for `Cc1c(C(=O)N[C@@H](Cc2ccccc2)C(=O)Nc2ccc3[nH]c(C(=O)O)cc3c2)n[nH]c1-c1cccc(Cl)c1` [Compound 7q, (S)-5-(2-(3-(3-Cchlorophenyl)-4-methyl-1H-pyrazole-5-carboxamido)-3-phenylpropanamido)-1H-indole-2-carboxylic acid] were 154 to 156 °C (dec.) and 8.94 µM. Taken in the same sequence, the figures for `O=C(O)c1ccc(NC(=O)[C@H](Cc2ccccc2)NC(=O)c2cc(-c3c(F)cccc3F)[nH]n2)cc1` [Compound 7j, (S)-4-(2-(5-(2,6-Difluorophenyl)-1H-pyrazole-3-carboxamido)-3-phenylpropanamido)benzoic acid] were 205 to 207 °C (dec.) and above 84.5 µM. Take `O=C(O)c1ccc(NC(=O)[C@H](Cc2ccccc2)NC(=O)c2cc(-c3cc(Cl)ccc3F)[nH]n2)cc1` [Compound 7h, (S)-4-(2-(5-(5-Chloro-2-fluorophenyl)-1H-pyrazole-3-carboxamido)-3-phenylpropanamido)benzoic acid]: the melting point is 179 to 181 °C (dec.). Besides, in data set [1] (setting [2]), the Ki is above 84.5 µM.

For `CC(=O)N1CCN(C(=O)C[C@H](NC(=O)c2cc(-c3cccc(Cl)c3F)[nH]n2)C(=O)Nc2ccc3[nH]c(C(=O)O)cc3c2)CC1` [Compound 7x, (S)-5-(4-(4-Acetylpiperazin-1-yl)-2-(5-(3-chloro-2-fluorophenyl)-1H-pyrazole-3-carboxamido)-4-oxobutanamido)-1H-indole-2-carboxylic acid], the Ki in data set [1] (setting [3]) came to 81.2 µM. Turning to `O=C(O)c1cc2cc(NC(=O)[C@H](Cc3cccnc3)NC(=O)c3cc(-c4cccc(Cl)c4F)n[nH]3)ccc2[nH]1` [Compound 7v, (S)-5-(2-(3-(3-Chloro-2-fluorophenyl)-1H-pyrazole-5-carboxamido)-3-(pyridin-3-yl)propanamido)-1H-indole-2-carboxylic acid], the melting point was 175 to 177 °C (dec.). Further, the Ki in data set [1] (setting [3]) came to 3.52 µM.

`O=C(O)c1cc2cc(NC(=O)[C@H](Cc3ccc(F)cc3)NC(=O)c3cc(-c4cccc(Cl)c4F)n[nH]3)ccc2[nH]1` [Compound 7s, (S)-5-(2-(3-(3-Chloro-2-fluorophenyl)-1H-pyrazole-5-carboxamido)-3-(4-fluorophenyl)propanamido)-1H-indole-2-carboxylic acid]: the melting point was 186 to 188 °C (dec.). In addition, in data set [1] (setting [3]), the Ki is 0.93 µM. Turning to `O=C(O)c1ccc(NC(=O)[C@H](Cc2ccccc2)NC(=O)c2cc(-c3c(F)cc(Cl)cc3F)[nH]n2)cc1` [Compound 7l, (S)-4-(2-(5-(4-Chloro-2,6-difluorophenyl)-1H-pyrazole-3-carboxamido)-3-phenylpropanamido)benzoic acid], the melting point was 123 to 125 °C (dec.). In data set [1] (setting [2]), the Ki is above 84.5 µM. `O=C(O)c1cc2cc(NC(=O)[C@H](Cc3ccccc3)NC(=O)c3cc(-c4c(F)ccc(Cl)c4F)n[nH]3)ccc2[nH]1` [Compound 7p, (S)-5-(2-(3-(3-Chloro-2,6-difluorophenyl)-1H-pyrazole-5-carboxamido)-3-phenylpropanamido)-1H-indole-2-carboxylic acid]: the melting point was 164 to 166 °C (dec.). Besides, the Ki in data set [1] (setting [2]) came out at 8.4 µM. Taken in the same sequence, the figures for `O=C(O)c1ccc(NC(=O)[C@H](Cc2ccccc2)NC(=O)c2cc(-c3ccccc3F)[nH]n2)cc1` [Compound 7c, (S)-4-(2-(5-(2-Fluorophenyl)-1H-pyrazole-3-carboxamido)-3-phenylpropanamido)benzoic acid] were 86 to 88 °C (dec.) and above 84.5 µM. Taken in the same sequence, the figures for `CN1CCN(C(=O)Nc2ccc(C[C@H](NC(=O)c3cc(-c4cccc(Cl)c4F)[nH]n3)C(=O)Nc3ccc4[nH]c(C(=O)O)cc4c3)cc2)CC1` [Compound 7zb, (S)-5-(2-(5-(3-Chloro-2-fluorophenyl)-1H-pyrazole-3-carboxamido)-3-(4-(4-methylpiperazine-1-carboxamido)phenyl)propanamido)-1H-indole-2-carboxylic acid] were 203 to 205 °C (dec.) and 1.94 µM. Taken in the same sequence, the figures for `Nc1ccc(C[C@H](NC(=O)c2cc(-c3cccc(Cl)c3F)[nH]n2)C(=O)Nc2ccc3[nH]c(C(=O)O)cc3c2)cc1` [Compound 7z, (S)-5-(3-(4-Aminophenyl)-2-(5-(3-chloro-2-fluorophenyl)-1H-pyrazole-3-carboxamido)propanamido)-1H-indole-2-carboxylic acid] were 209 to 211 °C (dec.) and 4.1 µM. For the molecule `O=C(O)c1cc2cc(NC(=O)[C@H](CC(=O)N3CCOCC3)NC(=O)c3cc(-c4cccc(Cl)c4F)n[nH]3)ccc2[nH]1` [Compound 7y, (S)-5-(2-(3-(3-Chloro-2-fluorophenyl)-1H-pyrazole-5-carboxamido)-4-morpholino-4-oxobutanamido)-1H-indole-2-carboxylic acid], the melting point was 175 to 177 °C (dec.). Also, the Ki in data set [1] (setting [3]) came out at 64 µM. In the case of `O=C(O)c1cc2cc(NC(=O)[C@H](Cc3ccccc3)NC(=O)c3cc(-c4cccc(Cl)c4F)n[nH]3)ccc2[nH]1` [Compound 7o, (S)-5-(2-(3-(3-Chloro-2-fluorophenyl)-1H-pyrazole-5-carboxamido)-3-phenylpropanamido)-1H-indole-2-carboxylic acid], the melting point is 172 to 174 °C (dec.). For the same molecule, the Ki in data set [1] (setting [3]) came to 1.97 µM. Take `O=C(O)c1ccc(NC(=O)[C@H](Cc2ccccc2)NC(=O)c2cc(-c3cccc(Cl)c3)[nH]n2)cc1` [Compound 7a, (S)-4-(2-(5-(3-Chlorophenyl)-1H-pyrazole-3-carboxamido)-3-phenylpropanamido)benzoic acid]: the melting point was 147 to 149 °C (dec.). The Ki in data set [1] (setting [2]) is 46.7 µM.

In the case of `O=C(O)c1cc2cc(NC(=O)[C@H](Cc3ccccn3)NC(=O)c3cc(-c4cccc(Cl)c4F)n[nH]3)ccc2[nH]1` [Compound 7w, (S)-5-(2-(3-(3-Chloro-2-fluorophenyl)-1H-pyrazole-5-carboxamido)-3-(pyridin-2-yl)propanamido)-1H-indole-2-carboxylic acid], the melting point was 192 to 194 °C (dec.). Besides, in data set [1] (setting [3]), the Ki turned out to be 8.99 µM.
